Active and inactive are the calls of the source. The rule behind the calls is not given here.
System: P388
Test: In vivo cytotoxicity against mouse P388 cells up to 1.4 mg/kg relative to control
Format: functional, organism-based
Parameters: dose 1.4 mg/kg

Structure (SMILES): O=C1NC(=O)[C@@]2(CC[C@@H](O)C2)c2ccncc21
- Activity: inactive

From ChEMBL document CHEMBL1151356, “An investigation of the antitumor activity of Sesbania drummondii” (1981)
